Columns and labels:
[1] = Highest frequency of moderate liver toxicity observed during clinical trials, expressed as a percentage. [column '% BIOL' in source]; settings: human
[2] = Highest frequency of acute liver toxicity observed during clinical trials, expressed as a percentage. [column '% AIGUE' in source]; settings: human
[3] = human, serum
[4] = human, serum; remark: listed apart in the source
[5] = human
[6] = human; remark: listed apart in the source
[7] = human; remark: listed apart in the source
[8] = human, serum, 4383 h
[9] = human; remark: listed apart in the source
[10] = human; remark: listed apart in the source
[11] = human; remark: listed apart in the source
[12] = human; remark: listed apart in the source
[13] = human; remark: listed apart in the source
[14] = human; remark: listed apart in the source
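For Hepatotoxicity (association with vascular disease) in this document: count of indexed literature references reporting vascular liver injury in humans, e.g. peliosis hepatitis, hepatic veno-occlusive disease or Budd-Chiari syndrome.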
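For Hepatotoxicity (benign tumour) in this document: value is a count of indexed literature references citing a benign tumour confirmed by histopathology.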
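For Hepatotoxicity (choleostasis) in this document: human cholestatic liver injury, shown by histopathology or by peak ALT or AST elevation over alkaline phosphatase ratio below 2, value counts indexed literature reports.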
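For Hepatotoxicity (chronic liver disease) in this document: chronic liver injury confirmed by histopathology or persistently raised serum aminotransferase activity beyond 6 months, value given as the count of indexed literature references.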
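For Hepatotoxicity (cirrhosis) in this document: value is a count of indexed literature references reporting cirrhosis confirmed by histopathology.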
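For Hepatotoxicity (cytolytic) in this document: human cytolytic liver injury, shown by histopathology or by a ratio above 5 of peak ALT or AST elevation to alkaline phosphatase elevation, value counts indexed references.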
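For Hepatotoxicity (granulomatous hepatitis) in this document: value is a count of indexed literature references reporting granulomatous liver disease confirmed by histopathology.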
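For Hepatotoxicity (malignant tumour) in this document: malignant tumour confirmed by histopathology, value gives the count of indexed literature references reporting it.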
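For Hepatotoxicity (severe hepatitis) in this document: human clinical data: severe hepatitis, meaning potentially life-threatening liver failure or clinically observed cases, the value counts how many indexed literature references report it.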
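For Hepatotoxicity (steatosis) in this document: steatosis confirmed by histopathology, value is the count of indexed references.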

Row | Molecule | Hepatotoxicity (moderate) [1] | Hepatotoxicity (acute) [2] | Hepatotoxicity (moderate) [3] | Hepatotoxicity (acute) [4] | Hepatotoxicity (cytolytic) [5] | Hepatotoxicity (choleostasis) [6] | Hepatotoxicity (severe hepatitis) [7] | Hepatotoxicity (chronic liver disease) [8] | Hepatotoxicity (cirrhosis) [9] | Hepatotoxicity (granulomatous hepatitis) [10] | Hepatotoxicity (association with vascular disease) [11] | Hepatotoxicity (steatosis) [12] | Hepatotoxicity (malignant tumour) [13] | Hepatotoxicity (benign tumour) [14]
1 | COc1ccc(-c2noc(CC(=O)O)c2-c2ccc(OC)cc2)cc1 [MOFEZOLAC] | 0% | 0% | 1 | 0 | 0 | 0 | 0 | 0 | 0 | 0 | 0 | 0 | 0 | 0
2 | COc1cccc2c1C(=O)c1c(O)c3c(c(O)c1C2=O)C[C@@](O)(/C(C)=N/NC(=O)c1ccccc1)C[C@@H]3O[C@H]1C[C@H](N)[C@H](O)[C@H](C)O1 [ZORUBICIN] | 51.7% | 17.2% | 1 | 1 | 0 | 1 | 1 | 0 | 0 | 0 | 0 | 0 | 0 | 0
3 | CN(C)CCCN1c2ccccc2C(C)(C)c2ccccc21 [DIMETACRINE] | 0% | 0% | 1 | 0 | 0 | 0 | 0 | 0 | 0 | 0 | 0 | 0 | 0 | 0
4 | COLISTIN | 0% | 0% | 1 | 0 | 0 | 0 | 0 | 0 | 0 | 0 | 0 | 0 | 0 | 0
5 | [H]/N=C(\N/C(=N/[H])NCCCCCCNC(=N)NC(=N)Nc1ccc(Cl)cc1)Nc1ccc(Cl)cc1 [CHLORHEXIDINE] | 0% | 0% | 0 | 1 | 0 | 0 | 0 | 0 | 0 | 0 | 0 | 0 | 0 | 0
6 | Cc1ncc(-c2csc(N=C(N)N)n2)[nH]1 [ZALTIDINE] | 94% | 8% | 1 | 1 | 1 | 0 | 0 | 0 | 0 | 0 | 0 | 0 | 0 | 0
7 | Cc1cnc(NCCCN(C)C)c2c1[nH]c1ccc3cc(O)ccc3c12 [INTOPLICINE] | 0% | 3.8% | 0 | 1 | 0 | 0 | 0 | 0 | 0 | 0 | 0 | 0 | 0 | 0
8 | NC1CCN(c2nc3c(cc2F)c(=O)c(C(=O)O)cn3-c2ccc(F)cc2F)C1 (stereo not drawn) [TOSUFLOXACIN] | 6.1% | 0% | 3 | 0 | 0 | 0 | 0 | 0 | 0 | 0 | 0 | 0 | 0 | 0
9 | O=C(O)Cc1ccccc1Oc1ccc(Cl)cc1Cl [FENCLOFENAC] | 1% | 0% | 1 | 0 | 0 | 0 | 0 | 0 | 0 | 0 | 0 | 0 | 0 | 0
10 | N[C@@H]1CN(c2c(F)cc3c(=O)c(C(=O)O)cn([C@@H]4C[C@@H]4F)c3c2Cl)CC12CC2 [SITAFLOXACIN ANHYDROUS] | 23.2% | 0% | 6 | 0 | 0 | 0 | 0 | 0 | 0 | 0 | 0 | 0 | 0 | 0
11 | CN1C[C@H](C(=O)N[C@]2(C)O[C@@]3(O)[C@@H]4CCCN4C(=O)[C@H](Cc4ccccc4)N3C2=O)C=C2c3cccc4[nH]cc(c34)C[C@H]21 [ERGOTAMINE] | 35.7% | 0% | 1 | 0 | 0 | 0 | 0 | 0 | 0 | 0 | 0 | 0 | 0 | 0
12 | Fc1ccc(C(c2ccc(F)cc2)N2CCN(C/C=C/c3ccccc3)CC2)cc1 [FLUNARIZINE] | 1.4% | 0% | 1 | 0 | 0 | 0 | 0 | 0 | 0 | 0 | 0 | 0 | 0 | 0

Reference: ChEMBL document CHEMBL3137667, “[Drug-induced liver injury; fourteenth updated edition of the bibliographic database of liver injuries and related drugs]” (Gastroenterol Clin Biol, 2004)
